In US20250319073A1, “COMPOSITIONS AND METHODS FOR THE TREATMENT OF HUNTINGTON’S DISEASE AND HTT PROTEINOPATHIES” (priority 2022, published 2025):

How the values were obtained:
[1] = tested on: R6/2 mice; experiment: Open field test in R6/2 mice; format: in vivo, mouse; conditions: 12 weeks of age
Description: Study Summary—A total of 46 male R6/2 mice and 15 male wild-type littermate control mice (WT) were used in the study. The mice were genotyped and the R6/2 mice were divided into different treatment groups based on their pre-treatment body weight. The treatment with Compound (Ia) (0.5 or 5 mg/kg; 10 ml/kg, intraperitoneally (i.p.), QD) or Vehicle (10 ml/kg, i.p., QD) was started at 4 weeks of age. Body weights were measured before the treatment onset and continued twice a week until the end of the study. Fine motor kinematic analysis and rotarod test were performed at 10 weeks of age and the open field activity and clasping behavior were measured at 12 weeks of age for all mice. At 8 and 12 weeks of age the glucose uptake was measured by ^18F-FDG PET and the striatal metabolites were measured using MR spectroscopy for 9-10 mice per group. […] The blood samples were used to prepare peripheral blood mononuclear cells (PBMCs) on which the flow cytometry/luminescence analysis was performed for following assays: mitochondrial reactive oxygen species (ROS) (MitoSox), and ATP levels (Cell TiterGlow). […]
Open Field Test—At 12 weeks of age all mice were subjected to open field test. […] Mice were placed in the center of the chamber and their behavior was recorded for 30 min in 5-min bins. […]

[2] = tested on: R6/2 mice; experiment: Rotarod test in R6/2 mice; format: in vivo, mouse; conditions: 5 mg/kg i.p. QD, 10 weeks of age, p<0.05, One-way ANOVA
Description: Study Summary—A total of 46 male R6/2 mice and 15 male wild-type littermate control mice (WT) were used in the study. The mice were genotyped and the R6/2 mice were divided into different treatment groups based on their pre-treatment body weight. The treatment with Compound (Ia) (0.5 or 5 mg/kg; 10 ml/kg, intraperitoneally (i.p.), QD) or Vehicle (10 ml/kg, i.p., QD) was started at 4 weeks of age. Body weights were measured before the treatment onset and continued twice a week until the end of the study. Fine motor kinematic analysis and rotarod test were performed at 10 weeks of age and the open field activity and clasping behavior were measured at 12 weeks of age for all mice. At 8 and 12 weeks of age the glucose uptake was measured by ^18F-FDG PET and the striatal metabolites were measured using MR spectroscopy for 9-10 mice per group. At 13 weeks of age 9-10 mice per group were subjected to tissue sample collection, and the brain and blood samples were collected. The blood samples were used to prepare peripheral blood mononuclear cells (PBMCs) on which the flow cytometry/luminescence analysis was performed for following assays: mitochondrial reactive oxygen species (ROS) (MitoSox), and ATP levels (Cell TiterGlow). […]
Rotarod Test—At 10 weeks of age all mice were subjected to rotarod test. […] The latency to fall from the rod was recorded.

Cc1cc(O)cc(C)c1C[C@H](NC(=O)[C@H](N)CCCNC(=N)N)C(=O)N[C@@H](CCCCN)c1nc(Cc2ccccc2)no1.Cl.Cl [Compound (Ia), (R)-2-amino-N—((S)-1-(((S)-5-amino-1-(3-benzyl-1,2,4-oxadiazol-5-yl)pentyl)amino)-3-(4-hydroxy-2,6-dimethylphenyl)-1-oxopropan-2-yl)-5-guanidinopentanamide]
total distance traveled in the open field compared to vehicle treated R6/2 mice ([1]; 5 mg/kg i.p. QD, p<0.05, One-way ANOVA): traveled longer total distance | total rearing frequency in the open field, between R6/2 groups ([1]; 0.5 or 5 mg/kg i.p. QD, p>0.05, One-way ANOVA): no significant differences | latency to fall in rotarod compared to vehicle treated R6/2 mice [2]: increased latency
